Test results reported in the supplement of paper PMC11208160.

Experiment: recombinant UMI read abundance after kanamycin selection (control-corrected) (log10(CPM+1)); higher = more efficient recombination; extreme values may be limits of the assay; sequences stand for … in AGTGCAGAGAAAATCGGCCAGTTTTCTCTGCCTGCAGTCCGCATGCCGTGGGACCCCTTGGGTTCTAACCTGTTGCCTAGATTTATGCAGCGGACTGCCTTTCTCCCAAAGTGATAAACCGG…AGGTTGGTTTCACT; site = the 11-nt donor
How it was run: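 After plating on IPTG (0.07 mM) plus kanamycin, or unselected, in two replicates, recombinant UMIs were PCR-amplified across the donor–target junction and sequenced. The cells were Escherichia coli co-electroporated with a UMI-tagged donor and donor-binding-loop pair library and a target plasmid with a fixed target and T7-inducible IS621 bridge recombinase. Values are log10(CPM+1), with CPM averaged over replicates and scaled by control-derived factors.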
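Further: IS621 bridge recombinase in Escherichia coli cells against a fixed T5 target plasmid.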

ATGCTTCCATGGACCGGTTTTCCCGGTAATCCGTATTTGCA (site ATGCTTCCTTG)
recombinant UMI read abundance (log10): 1.47

ATGGAGACATGGACCGGTTTTCCCGGTAATCCGTATTTGGT (site ATAGAGACTAC)
recombinant UMI read abundance (log10): 1.66

ATGGAGACATGGACCGGTTTTCCCGGTAATCCGTATTTGGT (site ATCGAGACTAC)
recombinant UMI read abundance (log10): 0.157

ATGGAGACATGGACCGGTTTTCCCGGTAATCCGTATTTGGT (site ATGGAGACTAC)
recombinant UMI read abundance (log10): 1.83

ATGGAGACATGGACCGGTTTTCCCGGTAATCCGTATTTGGT (site ATTGAGACTAC)
recombinant UMI read abundance (log10): 0.681

ATGGAGTCATGGACCGGTTTTCCCGGTAATCCGTATTTGGA (site ATGGAGTCTTC)
recombinant UMI read abundance (log10): 2.86

ATGGGAGCATGGACCGGTTTTCCCGGTAATCCGTATTTGCT (site ATGGGAGCTAG)
recombinant UMI read abundance (log10): 2.19

ATGGGCTCATGGACCGGTTTTCCCGGTAATCCGTATTTGTC (site ATGGGCTCTGA)
recombinant UMI read abundance (log10): 2.97

ATGGGGTCATGGACCGGTTTTCCCGGTAATCCGTATTTGAC (site ATGGGGTCTGT)
recombinant UMI read abundance (log10): 3.47

ATGGTTCCATGGACCGGTTTTCCCGGTAATCCGTATTTGTC (site ATGGTTCCTGA)
recombinant UMI read abundance (log10): 1.67

ATGTACACATGGACCGGTTTTCCCGGTAATCCGTATTTGAA (site ATGTACACTTT)
recombinant UMI read abundance (log10): 1.82

ATGTAGACATGGACCGGTTTTCCCGGTAATCCGTATTTGGC (site ATGTAGACTGC)
recombinant UMI read abundance (log10): 2.91

ATGTAGACATGGACCGGTTTTCCCGGTAATCCGTATTTGGC (site ATGTAGCCTGC)
recombinant UMI read abundance (log10): 0

ATGTAGACATGGACCGGTTTTCCCGGTAATCCGTATTTGGC (site ATGTAGGCTGC)
recombinant UMI read abundance (log10): 2.14

ATGTAGACATGGACCGGTTTTCCCGGTAATCCGTATTTGGC (site ATGTAGTCTGC)
recombinant UMI read abundance (log10): 1.67

ATGTAGCCATGGACCGGTTTTCCCGGTAATCCGTATTTGTT (site ATGTAGCCTAA)
recombinant UMI read abundance (log10): 0.171

ATGTAGGCATGGACCGGTTTTCCCGGTAATCCGTATTTGAC (site ATGTAGGCTGA)
recombinant UMI read abundance (log10): 2.33

ATGTAGGCATGGACCGGTTTTCCCGGTAATCCGTATTTGAC (site ATGTAGGCTGC)
recombinant UMI read abundance (log10): 1.87

ATGTAGGCATGGACCGGTTTTCCCGGTAATCCGTATTTGAC (site ATGTAGGCTGG)
recombinant UMI read abundance (log10): 1.57

ATGTAGGCATGGACCGGTTTTCCCGGTAATCCGTATTTGAC (site ATGTAGGCTGT)
recombinant UMI read abundance (log10): 3.04

ATGTAGTCATGGACCGGTTTTCCCGGTAATCCGTATTTGGC (site ATGTAGACTGC)
recombinant UMI read abundance (log10): 1.85

ATGTAGTCATGGACCGGTTTTCCCGGTAATCCGTATTTGGC (site ATGTAGCCTGC)
recombinant UMI read abundance (log10): 0

ATGTAGTCATGGACCGGTTTTCCCGGTAATCCGTATTTGGC (site ATGTAGGCTGC)
recombinant UMI read abundance (log10): 0

ATGTAGTCATGGACCGGTTTTCCCGGTAATCCGTATTTGGC (site ATGTAGTCTGC)
recombinant UMI read abundance (log10): 3.26

ATGTATGCATGGACCGGTTTTCCCGGTAATCCGTATTTGGC (site ATGTAAGCTGC)
recombinant UMI read abundance (log10): 1.52

ATGTATGCATGGACCGGTTTTCCCGGTAATCCGTATTTGGC (site ATGTACGCTGC)
recombinant UMI read abundance (log10): 1.51

ATGTATGCATGGACCGGTTTTCCCGGTAATCCGTATTTGGC (site ATGTAGGCTGC)
recombinant UMI read abundance (log10): 0.86

ATGTATGCATGGACCGGTTTTCCCGGTAATCCGTATTTGGC (site ATGTATGCTGC)
recombinant UMI read abundance (log10): 3.22

ATGTCCTCATGGACCGGTTTTCCCGGTAATCCGTATTTGTA (site ATGTCCTCTTA)
recombinant UMI read abundance (log10): 2.5
